# Experiment: solubility of ivermectin in solvents
# Assay type: physicochemical
# Source text: The solubility of ivermectin in benzyl alcohol is >40% by weight and in castor oil ˜4% by weight.
substance,measurement,setting,value
"22,23-dihydroavermectin B1 [ivermectin]",solubility in benzyl alcohol,solvent benzyl alcohol,> 40 % by weight
same,solubility in castor oil,solvent castor oil,~4 % by weight

# Source: US6617314B2, “Injectable formulations of avermectins and milbemycins” (Bayer Aktiengesellschaft, priority 1996, dated 2003)
